Structures are written as SMILES. Structures can show the parent of a compound that is named as a salt.

The target in this assay is T1, human vasopressin V1b receptor (Homo sapiens, UniProt P47901).
T1 construct: expressed in transfected cells; host or cells: CHO-K1 (cell line hV1b_3H2_CHO), membrane preparation
T1 sequence (P47901 1-424): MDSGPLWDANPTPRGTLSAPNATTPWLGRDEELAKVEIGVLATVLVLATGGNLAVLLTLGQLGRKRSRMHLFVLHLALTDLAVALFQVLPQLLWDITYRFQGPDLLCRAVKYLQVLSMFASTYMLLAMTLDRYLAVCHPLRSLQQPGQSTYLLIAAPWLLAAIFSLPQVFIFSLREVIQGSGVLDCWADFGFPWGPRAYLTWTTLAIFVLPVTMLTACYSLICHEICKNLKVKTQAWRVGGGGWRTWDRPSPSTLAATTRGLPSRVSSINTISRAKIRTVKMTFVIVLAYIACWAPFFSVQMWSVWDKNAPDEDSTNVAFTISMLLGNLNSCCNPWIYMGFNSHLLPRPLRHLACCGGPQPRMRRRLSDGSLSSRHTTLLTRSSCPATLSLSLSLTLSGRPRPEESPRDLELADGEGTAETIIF
Briefly: Vasopressin V1b receptor binding test. The settings on record: membranes of CHO-K1 cells, displacement of 1.5 nM 3H-AVP. As to the method: • Vasopressin V1b Receptor Binding Test: • Substances:
The test substances were dissolved at a concentration of 10^−2 M in DMSO and diluted further in DMSO to 5×10^−4 M to 5×10^−9 M. These DMSO solutions were diluted 1:10 with test buffer. The concentration of substance was again diluted 1:5 in the test preparation.
The membrane pellet was homogenized and centrifuged again as described, and then taken up in 50 mM Tris-HCl, pH 7.4, homogenized and, frozen in aliquots, stored at −190° C. in liquid nitrogen.
The incubation buffer was: 50 mM Tris, 10 mM MgCl2, 0.1% BSA, pH 7.4. […] The nonspecific binding was determined with 1 μM AVP (Bachem #H1780). All determinations were performed in triplicate. After incubation (60 minutes at room temperature), the free radioligand was filtered off by vacuum filtration (Skatron cell harvester 7000) on Whatman GF/B glass-fibre filter mats and the filters were transferred to scintillation vessels. Liquid scintillation measurement was performed in a Tricarb instrument, Model 2000 or 2200CA (Packard). Conversion of the measured cpm to dpm was performed with the aid of a standard quench series.
The binding parameters were calculated by nonlinear regression in SAS.
For the compounds according to the invention, the affinities for the human vasopressin receptor V1b were measured according to the above test and the affinity constant (Ki) was determined.
Take `CCOc1ccccc1C1(N2CCN(c3ccncc3)CC2)C(=O)N(S(=O)(=O)c2ccc(C)cc2OC)c2ccc(C#N)cc21` (stereo not shown) [Example 9, 5-Cyano-3-(2-ethoxyphenyl)-1-(2-methoxy-4-methyl-benzenesulphonyl)-3-(4-pyridin-4-yl-piperazin-1-yl)-2,3-dihydro-1 H-indol-2-one]: the Ki – broadly, a dissociation constant, usually derived from enzyme kinetics or from competition with a known ligand – was 0.05 to 0.5 µM.

For the compound `COc1ccc(S(=O)(=O)N2C(=O)C(c3cc(OC)ccc3OC)(N3CCN(c4ccncc4)CC3)c3cc(OC)ccc32)c(OC)c1` (stereo not shown) [Example 28, 1-(2,4-Dimethoxy-benzenesulphonyl)-3-(2,5-dimethoxyphenyl)-5-methoxy-3-(4-pyridin-4-yl-piperazin-1-yl)-1,3-dihydro-indol-2-one], the Ki was less than 0.05 µM.

In turn, `CCOc1ccccc1C1(N2CCN(c3ccncc3)CC2)C(=O)N(S(=O)(=O)c2ccc(Cl)cc2F)c2ccc(C#N)cc21` (racemic) [Example 78, (±)-5-Cyano-1-(4-chloro-2-fluoro-benzenesulphonyl)-3-(2-ethoxyphenyl)-3-(4-pyridin-4-yl-piperazin-1-yl)-2,3-dihydro-1H-indol-2-one] came in with a Ki of 0.05 to 0.5 µM.

Regarding `COc1ccc(S(=O)(=O)N2C(=O)C(c3ccccc3OC)(N3CCN(c4ccncc4)CC3)c3cc(C#N)ccc32)c(OC)c1` (stereo not shown) [Example 26, 5-Cyano-1-(2,4-dimethoxy-benzenesulphonyl)-3-(2-methoxyphenyl)-3-(4-pyridin-4-yl-piperazin-1-yl)-2,3-dihydro-1H-indol-2-one], the Ki lay in the range of 0.05 to 0.5 µM.

Regarding `COc1ccccc1C1(N2CCN(c3ccncc3)CC2)C(=O)N(S(=O)(=O)c2ccccc2)c2ccc(Cl)cc21` (stereo not shown) [Example 16, 1-Benzenesulphonyl-5-chloro-3-(2-methoxyphenyl)-3-(4-pyridin-4-yl-piperazin-1-yl)-1,3-dihydro-indol-2-one], the Ki lay within 0.05 to 0.5 µM.

The compound `COc1ccc(S(=O)(=O)N2C(=O)C(c3ccccc3OC)(N3C[C@H]4CN(c5ccncc5)C[C@H]43)c3cc(Cl)ccc32)c(OC)c1` (stereo partly drawn) [Example 21, 5-Chloro-1-(2,4-dimethoxy-benzenesulphonyl)-3-(2-methoxyphenyl)-3-((1R,5S)-3-pyridin-4-yl-3,6-diaza-bicyclo[3.2.0]hept-6-yl)-1,3-dihydro-indol-2-one] displayed an inhibition constant (Ki) of less than 0.05 µM.

As for `COc1ccc(S(=O)(=O)N2C(=O)C(c3ccccc3OC)(N3CC4CN(c5ccncc5)CC4C3)c3cc(Cl)ccc32)c(OC)c1` (stereo not shown) [Example 19, 5-Chloro-1-(2,4-dimethoxy-benzenesulphonyl)-3-(2-methoxyphenyl)-3-(5-pyridin-4-yl-hexahydro-pyrrolo[3,4-c]pyrrol-2-yl)-1,3-dihydro-indol-2-one], the Ki was less than 0.05 µM.

With `CCOc1ccccc1C1(N2CCN(c3ccncc3)CC2)C(=O)N(S(=O)(=O)c2ccc(C(C)(C)C)cc2)c2ccc(C#N)cc21` (racemic) [Example 80, (±)-5-Cyano-1-(4-tert-butyl-benzenesulphonyl)-3-(2-ethoxyphenyl)-3-(4-pyridin-4-yl-piperazin-1-yl)-2,3-dihydro-1H-indol-2-one], the inhibitory constant (Ki) was in the range of 0.05 to 0.5 µM.

Compound `CCOc1ccccc1C1(N2CCN(c3ccncc3)CC2)C(=O)N(S(=O)(=O)c2ccc(C)cc2)c2ccc(C#N)cc21` (racemic) [Example 85, (±)-5-Cyano-3-(2-ethoxyphenyl)-3-(4-pyridin-4-yl-piperazin-1-yl)-1-(toluene-4-sulphonyl)-2,3-dihydro-1H-indol-2-one] had a Ki of 0.05 to 0.5 µM.

As for `CCOc1ccc(CC)cc1C1(N2CCN(c3ccnc(C(C)C)c3)CC2)C(=O)N(S(=O)(=O)c2ccc(OC)cc2OC)c2ccc(C#N)cc21` (racemic) [Example 105, (±)-5-Cyano-1-(2,4-dimethoxy-benzenesulphonyl)-3-(2-ethoxy-5-ethyl-phenyl)-3-[4-(2-isopropyl-pyridin-4-yl)-piperazin-1-yl]-2,3-dihydro-1H-indol-2-one], the Ki is less than 0.05 µM.

For `CCOc1ccccc1C1(N2CCN(c3ccncc3)CC2)C(=O)N(S(=O)(=O)c2ccccc2)c2ccc(C#N)cc21` (stereo not shown) [Example 14, 5-Cyano-1-benzenesulphonyl-3-(2-ethoxyphenyl)-3-(4-pyridin-4-yl-piperazin-1-yl)-2,3-dihydro-1H-indol-2-one], the Ki lay within 0.05 to 0.5 µM.

The compound `CCOc1ccc(OC)cc1C1(N2CCN(c3ccnc(CC)c3)CC2)C(=O)N(S(=O)(=O)c2ccc(OC)cc2OC)c2ccc(C#N)cc21` (racemic) [Example 94, (±)-5-Cyano-1-(2,4-dimethoxy-benzenesulphonyl)-3-(2-ethoxy-5-methoxyphenyl)-3-[4-(2-ethyl-pyridin-4-yl)-piperazin-1-yl]-2,3-dihydro-1H-indol-2-one] returned a Ki of less than 0.05 µM.

Turning to `CCOc1cc(OC)ccc1C1(N2CCN(c3ccnc(C(C)C)c3)CC2)C(=O)N(S(=O)(=O)c2ccc(OC)cc2OC)c2ccc(C#N)cc21` (stereo not shown) [Example 111, 5-Cyano-1-(2,4-dimethoxybenzenesulphonyl)-3-(2-ethoxy-4-methoxyphenyl)-3-[4-(2-isopropylpyridin-4-yl)-piperazin-1-yl]-2,3-dihydro-1H-indol-2-one×trifluoroacetic acid], the Ki is less than 0.05 µM.

In the case of `CCOc1ccc(OC)cc1C1(N2CCN(c3ccnc(C)c3)CC2)C(=O)N(S(=O)(=O)c2ccc(OC)cc2OC)c2ccc(C#N)cc21` (single isomer, unassigned; (+)) [Example 106, (+)-5-Cyano-1-(2,4-dimethoxy-benzenesulphonyl)-3-(2-ethoxy-5-methoxyphenyl)-3-[4-(2-methyl-pyridin-4-yl)-piperazin-1-yl]-2,3-dihydro-1H-indol-2-one], the Ki was less than 0.05 µM.

`CCOc1ccccc1C1(N2CCN(c3ccncc3)CC2)C(=O)N(S(=O)(=O)c2ccc(C(C)C)cc2)c2ccc(C#N)cc21` (racemic) [Example 81, (±)-5-Cyano-3-(2-ethoxyphenyl)-1-(4-isopropyl-benzenesulphonyl)-3-(4-pyridin-4-yl-piperazin-1-yl)-2,3-dihydro-1H-indol-2-one] returned an inhibition constant (Ki) of 0.05 to 0.5 µM.

`COc1ccc(S(=O)(=O)N2C(=O)C(c3ccccc3OC)(N3CCN(c4ccncc4)CC3)c3cc(Cl)ccc32)c(OC)c1` (stereo not shown) [Example 3, 5-Chloro-1-(2,4-dimethoxy-benzenesulphonyl)-3-(2-methoxyphenyl)-3-(4-pyridin-4-yl-piperazin-1-yl)-1,3-dihydro-indol-2-one] gave an inhibition constant Ki of less than 0.05 µM.

Take `COc1ccc(S(=O)(=O)N2C(=O)C(c3cccc(OC)c3OC)(N3CCN(c4ccncc4)CC3)c3cc(Cl)ccc32)c(OC)c1` (stereo not shown) [Example 31, 5-Chloro-1-(2,4-dimethoxy-benzenesulphonyl)-3-(2,3-dimethoxyphenyl)-3-(4-pyridin-4-yl-piperazin-1-yl)-1,3-dihydro-indol-2-one, HCl salt]: the Ki is less than 0.05 µM.

Compound `CCOc1ccc(OC)cc1C1(N2CCN(c3ccncc3)CC2)C(=O)N(S(=O)(=O)c2ccc(OC)cc2)c2ccc(C#N)cc21` (stereo not shown) [Example 62, 5-Cyano-3-(2-ethoxy-5-methoxyphenyl)-1-(4-methoxy-benzenesulphonyl)-3-(4-pyridin-4-yl-piperazin-1-yl)-2,3-dihydro-1H-indol-2-one] had a Ki of less than 0.05 µM.

`CCOc1ccc(OC)cc1C1(N2CCN(c3ccncc3)CC2)C(=O)N(S(=O)(=O)c2ccc(OC)cc2OC)c2ccc(C#N)cc21` (stereo not shown) [Example 55, 5-Cyano-1-(2,4-dimethoxy-benzenesulphonyl)-3-(2-ethoxy-5-methoxyphenyl)-3-(4-pyridin-4-yl-piperazin-1-yl)-2,3-dihydro-1H-indol-2-one] gave a Ki of less than 0.05 µM.

`CCOc1ccc(CC)cc1C1(N2CCN(c3ccnc(C)c3)CC2)C(=O)N(S(=O)(=O)c2ccc(OC)cc2OC)c2ccc(C#N)cc21` (racemic) [Example 107, (±)-5-Cyano-1-(2,4-dimethoxy-benzenesulphonyl)-3-(2-ethoxy-5-ethyl-phenyl)-3-[4-(2-methyl-pyridin-4-yl)-piperazin-1-yl]-2,3-dihydro-1H-indol-2-one]: the inhibition constant (Ki) is less than 0.05 µM.

For the compound `COc1ccccc1C1(N2CCN(c3ccncc3)CC2)C(=O)N(S(=O)(=O)c2ccccc2OC)c2ccc(Cl)cc21` (stereo not shown) [Example 5, 5-Chloro-1-(2-methoxy-benzenesulphonyl)-3-(2-methoxyphenyl)-3-(4-pyridin-4-yl-piperazin-1-yl)-1,3-dihydro-indol-2-one], the Ki was less than 0.05 µM.

For the compound `COc1ccccc1C1(N2CCN(c3ccncc3)CC2)C(=O)N(S(=O)(=O)c2ccc(C)cc2OC)c2ccc(Cl)cc21` (stereo not shown) [Example 6, 5-Chloro-1-(2-methoxy-4-methyl-benzenesulphonyl)-3-(2-methoxyphenyl)-3-(4-pyridin-4-yl-piperazin-1-yl)-1,3-dihydro-indol-2-one], the Ki is less than 0.05 µM.

These data come from patent US8431567B2 (Abbott GmbH & Co. KG, priority 2006, dated 2013).
